Results reported in US10844071B2, “Substituted [1,2,3]triazolo[4,5-d]pyrimidines that lower stress-induced p-tau” (BUCK INSTITUTE FOR RESEARCH ON AGING, priority 2015, dated 2020).
Converted amounts (≈) assume the structure as drawn. Where a name gives a salt, the structure may show the parent alone. Read-outs that look alike come from different tables or passages of the source. One block for each molecule: values may come before it.

Experiments:
CRF1 = molecular target: T1, CRF1 (Homo sapiens, UniProt P34998); experiment: CRF1 binding (Ki); settings: Tertiary; read-out: CRF1 Ki
T1 sequence (P34998 24-415): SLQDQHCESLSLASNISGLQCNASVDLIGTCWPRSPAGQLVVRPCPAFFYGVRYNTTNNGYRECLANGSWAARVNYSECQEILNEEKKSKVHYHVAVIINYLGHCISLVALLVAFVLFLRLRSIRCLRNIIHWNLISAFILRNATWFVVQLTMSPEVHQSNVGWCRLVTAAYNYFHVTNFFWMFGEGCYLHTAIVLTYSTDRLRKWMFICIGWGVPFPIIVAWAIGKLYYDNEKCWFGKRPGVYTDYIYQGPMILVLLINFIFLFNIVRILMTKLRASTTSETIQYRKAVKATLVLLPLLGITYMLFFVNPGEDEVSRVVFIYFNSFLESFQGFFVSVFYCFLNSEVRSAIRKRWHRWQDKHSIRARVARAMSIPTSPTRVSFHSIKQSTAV

Solubility in DMSO = format: physicochemical
PAMPA = format: in vitro ADME; settings: Tertiary
SH-SY5Y cells [1] = experiment: Primary screen in SH-SY5Y cells (tau, p-tau); format: cell-based; settings: for Tau % / p-Tau (%): Primary (SH-SY5Y); for p-tau / tau: SH-SY5Y cells, no CRF
Description: (§1) As described below, in vitro studies were performed using SHSY-5Y cells. These cells are a useful neurological model that differentiate into cells with morphological and biochemical characteristics of mature neurons including mature isoforms of tau.
However, J04 did lower p-tau to the same level as J03 and significant may not have been reached due to low N #.

SH-SY5Y cells [2] = experiment: Secondary screen in SH-SY5Y cells with CRF stimulation (tau, p-tau, sAPPα); format: cell-based
Description: as §1
In an initial study, SHSY-5Y cells were cultured without serum to induce differentiation and increase tau expression. […] The increases were proportional and both were about 50%. J03 (FIG. 4A) reduced the CRF-induced tau increases more than the p-tau increases. The increase in p-tau with CRF was expected, but the increase in tau less predictable as CRF reduces neuronal differentiation (see Chen et al. (2004) Proc. Natl. Acad. Sci. USA, 101(44): 15782-15787), however, it can increase tau accumulation.

J20 mice = experiment: J17 pilot study in J20 mice (oral, 28 days); format: in vivo, mouse
Description: Animal experiments were performed using J20 mice. The J20 mouse is a model of for Alzheimer's disease. This model overexpresses human APP with two mutations linked to familial Alzheimer's disease (the APP KM670/671NL (Swedish) and […] (Indiana) mutations).
In a J17 pilot study (#1 pilot study) male and female J20 mice were housed singly and treated with J17 at 10 mkd by oral delivery for 28 days. […]

[3] = In vivo pharmacokinetics, brain and plasma levels; set-up: species or system mouse
[4] = organic solvent or mixture, read-out: Solubility
[5] = Secondary (SH-Sy5Y, CRF stimulation)
[6] = SH-SY5Y cells, CRF-induced increase
[7] = subcutaneous injection of 10 mg/kg

Compound: CCC(COC)n1nnc2c(N(C)C3CC3)nc(C)nc21 (centres unmarked) [Compound J11]
Ki (CRF1): > 1000 nM
solubility (Solubility in DMSO; [4]): ~10 mM (≈ 2900 µg/mL)
PAMPA (PAMPA): 0.94
Tau % (SH-SY5Y cells [1]): Unchanged
sAPPα (%) (SH-SY5Y cells [2]; [5]): Unchanged

Compound: CCC(COC)n1nnc2c(N3CC(C)CC(C)C3)nc(C)nc21 (centres unmarked) [Compound J12]
Ki (CRF1): > 1000 nM
solubility (Solubility in DMSO; [4]): ~10 mM (≈ 3320 µg/mL)
PAMPA (PAMPA): 2.39
sAPPα (%) (SH-SY5Y cells [2]; [5]): Unchanged

Compound: CCC(COC)n1nnc2c(N(C)C3CCOCC3)nc(C)nc21 (centres unmarked) [Compound J15]
Ki (CRF1): > 1000 nM
solubility (Solubility in DMSO; [4]): ~10 mM (≈ 3340 µg/mL)
PAMPA (PAMPA): 0.34
Tau % (SH-SY5Y cells [1]): Unchanged
p-Tau (%) (SH-SY5Y cells [1]): ↓>10%
Tau % (SH-SY5Y cells [2]; [5]): ↓>30%
p-Tau (%) (SH-SY5Y cells [2]; [5]): ↓>30%
sAPPα (%) (SH-SY5Y cells [2]; [5]): >10%

Now from value to molecule, other results behind:

Ki (CRF1): 25 nM
solubility (Solubility in DMSO; [4]): ~10 mM (≈ 3680 µg/mL)
PAMPA (PAMPA): 1.11
Compound: CCC(COC)n1nnc2c(N(C)c3c(C)cc(C)cc3C)nc(C)nc21 (centres unmarked) [Compound J14]
Tau % (SH-SY5Y cells [1]): Unchanged

Ki (CRF1): 30 nM
solubility (Solubility in DMSO; [4]): ~10 mM (≈ 3560 µg/mL)
PAMPA (PAMPA): 0.64
brain levels ([3]; oral delivery, 10 mg/kg): ~50 ng/g
plasma levels relative to brain levels ([3]; oral delivery, 10 mg/kg): ~10 fold
brain levels [3, 7]: ~400 ng/g
plasma levels [3, 7]: ~4000 ng/m
Compound: CCC(COC)Nc1nc(C)nc2c1nnn2-c1ccc(OC)cc1C (centres unmarked) [Compound J17]
p-tau (SH-SY5Y cells [1]): significantly lower
tau (SH-SY5Y cells [1]): significantly lower
p-tau after CRF exposure (SH-SY5Y cells [2]; [6]): decreased
tau after CRF exposure (SH-SY5Y cells [2]; [6]): decreased
sAPPα after CRF exposure (SH-SY5Y cells [2]; SH-SY5Y cells, FIG. 19): same as control
sAPPα (%) (SH-SY5Y cells [2]; [5]): Unchanged
sAPPα with increasing concentrations of CRF (SH-SY5Y cells [2]; without CRF and at 50 nM CRF, FIG. 20): lack of increase
novel object preference (J20 mice; all mice): increase with J17 was significant
sAPPα (J20 mice; both genders): increase with J03 but not J17
p-tau/tau ratio (J20 mice; males): lower still and just missed significance
sAPPα/sAPPβ ratio (J20 mice; males): greater
activity (total interactions) (J20 mice; not significant): lowered
sAPPβ (J20 mice; one high outlier eliminated): decrease

solubility (Solubility in DMSO; [4]): ~10 mM (≈ 3610 µg/mL)
PAMPA (PAMPA): 0.75
brain levels at the peak ([3]; SQ injection at 10 mkd): ~190 ng/g
time of peak brain level after injection ([3]; SQ injection at 10 mkd): 4 h
brain levels with oral delivery compared to SQ ([3]; oral delivery, detectable from 1 to 6 hours): much lower
Compound: CCC(COC)Nc1nc(C)nc2c1nnn2-c1ccc(Cl)cc1C (centres unmarked) [Compound J19, 3-(4-Chloro-2-methylphenyl)-N-(1-methoxybutan-2-yl)-5-methyl-3H-[1,2,3]triazolo[4,5-d]pyrimidin-7-amine]
p-tau/tau ratio (SH-SY5Y cells [1]; FIG. 29): unchanged
p-tau (SH-SY5Y cells [1]): decreased
tau (SH-SY5Y cells [1]): decreased
p-tau/tau ratios (SH-SY5Y cells [2]; 50 and 100 nM CRF, FIG. 28 panel C): highly significantly decreased
sAPPα (SH-SY5Y cells [2]; FIG. 28 panel D, significance for J03 at 100 nM CRF): trend for sAPPα to be higher
sAPPα (%) (SH-SY5Y cells [2]; [5]): Unchanged
tau (SH-SY5Y cells [2]; absence of CRF and presence of 100 nM CRF, FIG. 28 panel A): trend to decrease
p-tau (SH-SY5Y cells [2]; presence and absence of CRF, FIG. 28 panel B): significantly reduced

solubility (Solubility in DMSO): ≈10 mM
Compound: CCC(COC)Nc1nc(C)nc2c1nnn2-c1ccc(OC)cc1C (centres unmarked) [J17 HCl]
Tau % (SH-SY5Y cells [1]): Unchanged
p-Tau (%) (SH-SY5Y cells [1]): Unchanged

solubility (Solubility in DMSO; [4]): ~10 mM
Compound: CCC(COC)N(C)c1nc(C)nc2c1nnn2-c1ccc(OC)cc1C (centres unmarked) [J20 HCl]
Tau % (SH-SY5Y cells [1]): Unchanged
